# ChEMBL document CHEMBL3045611, “Identification of the G143A mutation associated with QoI resistance in Cercospora beticola field isolates from Michigan, United States” (Pest Manag Sci, 2013)
# Key:
# Assay type in all cases: functional, organism-based
# [1] = test system: Cercospora beticola; test: Antifungal activity against Cercospora beticola isolate 98-9-M expressing cytb with glycine at codon 143 assessed as reduction in spore germination
# [2] = test system: Cercospora beticola; test: Antifungal activity against Cercospora beticola isolate 11-1028-2 expressing cytb with alanine at codon 143 assessed as reduction in spore germination
# [3] = test system: Cercospora beticola; test: Antifungal activity against Cercospora beticola isolate 11-1022-1 expressing cytb with alanine at codon 143 assessed as reduction in spore germination
# [4] = test system: Cercospora beticola; test: Antifungal activity against Cercospora beticola isolate 11-1036-2 expressing cytb with alanine at codon 143 assessed as reduction in spore germination
# [5] = test system: Cercospora beticola; test: Antifungal activity against Cercospora beticola isolate 11-1015-2 expressing cytb with alanine at codon 143 assessed as reduction in spore germination
# [6] = test system: Cercospora beticola; test: Antifungal activity against Cercospora beticola isolate 11-1041-1 expressing cytb with alanine at codon 143 assessed as reduction in spore germination
# [7] = test system: Cercospora beticola; test: Antifungal activity against Cercospora beticola isolate 11-1038-1 expressing cytb with alanine at codon 143 assessed as reduction in spore germination
# [8] = test system: Cercospora beticola; test: Antifungal activity against Cercospora beticola isolate 11-1035-2 expressing cytb with alanine at codon 143 assessed as reduction in spore germination
# [9] = test system: Cercospora beticola; test: Antifungal activity against Cercospora beticola isolate 11-1015-1 expressing cytb with alanine at codon 143 assessed as reduction in spore germination
# [10] = test system: Cercospora beticola; test: Antifungal activity against Cercospora beticola isolate 11-1026-1 expressing cytb with alanine at codon 143 assessed as reduction in spore germination
# [11] = test system: Cercospora beticola; test: Antifungal activity against Cercospora beticola isolate 11-1036-1 expressing cytb with alanine at codon 143 assessed as reduction in spore germination
# [12] = test system: Cercospora beticola; test: Antifungal activity against Cercospora beticola isolate 11-1038-2 expressing cytb with alanine at codon 143 assessed as reduction in spore germination
# [13] = test system: Cercospora beticola; test: Antifungal activity against Cercospora beticola isolate 11-1008-1 expressing cytb with alanine at codon 143 assessed as reduction in spore germination
# [14] = test system: Cercospora beticola; test: Antifungal activity against Cercospora beticola isolate 98-13-M expressing cytb with glycine at codon 143 assessed as reduction in spore germination
# [15] = test system: Cercospora beticola; test: Antifungal activity against Cercospora beticola isolate 11-1003-2 expressing cytb with alanine at codon 143 assessed as reduction in spore germination
# [16] = test system: Cercospora beticola; test: Antifungal activity against Cercospora beticola isolate 11-1007-1 expressing cytb with alanine at codon 143 assessed as reduction in spore germination
# [17] = test system: Cercospora beticola; test: Antifungal activity against Cercospora beticola isolate 11-1046-2 expressing cytb with alanine at codon 143 assessed as reduction in spore germination
# [18] = test system: Cercospora beticola; test: Antifungal activity against Cercospora beticola isolate 99-233-3-M expressing cytb with glycine at codon 143 assessed as reduction in spore germination
# [19] = test system: Cercospora beticola; test: Antifungal activity against Cercospora beticola isolate 11-1044-2 expressing cytb with alanine at codon 143 assessed as reduction in spore germination
# [20] = test system: Cercospora beticola; test: Antifungal activity against Cercospora beticola isolate 11-1027-1 expressing cytb with alanine at codon 143 assessed as reduction in spore germination
# [21] = test system: Cercospora beticola; test: Antifungal activity against Cercospora beticola isolate 11-1040-2 expressing cytb with alanine at codon 143 assessed as reduction in spore germination
# [22] = test system: Cercospora beticola; test: Antifungal activity against Cercospora beticola isolate 11-1007-2 expressing cytb with alanine at codon 143 assessed as reduction in spore germination
# [23] = test system: Cercospora beticola; test: Antifungal activity against Cercospora beticola isolate 98-150-M expressing cytb with glycine at codon 143 assessed as reduction in spore germination
# [24] = test system: Cercospora beticola; test: Antifungal activity against Cercospora beticola isolate 11-1045-2 expressing cytb with alanine at codon 143 assessed as reduction in spore germination
# [25] = test system: Cercospora beticola; test: Antifungal activity against Cercospora beticola isolate 11-1046-1 expressing cytb with alanine at codon 143 assessed as reduction in spore germination
# [26] = test system: Cercospora beticola; test: Antifungal activity against Cercospora beticola isolate 98-12-M expressing cytb with glycine at codon 143 assessed as reduction in spore germination
# [27] = test system: Cercospora beticola; test: Antifungal activity against Cercospora beticola isolate 11-1037-1 expressing cytb with alanine at codon 143 assessed as reduction in spore germination
# [28] = test system: Cercospora beticola; test: Antifungal activity against Cercospora beticola isolate 11-1014-1 expressing cytb with alanine at codon 143 assessed as reduction in spore germination
# [29] = test system: Cercospora beticola; test: Antifungal activity against Cercospora beticola isolate 11-1044-1 expressing cytb with alanine at codon 143 assessed as reduction in spore germination
# [30] = test system: Cercospora beticola; test: Antifungal activity against Cercospora beticola isolate 11-1005-1 expressing cytb with alanine at codon 143 assessed as reduction in spore germination
# [31] = test system: Cercospora beticola; test: Antifungal activity against Cercospora beticola isolate 11-1037-2 expressing cytb with alanine at codon 143 assessed as reduction in spore germination
# [32] = test system: Cercospora beticola; test: Antifungal activity against Cercospora beticola isolate 11-1042-2 expressing cytb with alanine at codon 143 assessed as reduction in spore germination
# [33] = test system: Cercospora beticola; test: Antifungal activity against Cercospora beticola isolate 98-101-5-M expressing cytb with glycine at codon 143 assessed as reduction in spore germination
# [34] = test system: Cercospora beticola; test: Antifungal activity against Cercospora beticola isolate 11-1043-2 expressing cytb with alanine at codon 143 assessed as reduction in spore germination
# [35] = test system: Cercospora beticola; test: Antifungal activity against Cercospora beticola isolate 11-1005-2 expressing cytb with alanine at codon 143 assessed as reduction in spore germination
# [36] = test system: Cercospora beticola; test: Antifungal activity against Cercospora beticola isolate 11-1016-1 expressing cytb with alanine at codon 143 assessed as reduction in spore germination
# [37] = test system: Cercospora beticola; test: Antifungal activity against Cercospora beticola isolate 98-19-M expressing cytb with glycine at codon 143 assessed as reduction in spore germination
# [38] = test system: Cercospora beticola; test: Antifungal activity against Cercospora beticola isolate 11-1039-1 expressing cytb with alanine at codon 143 assessed as reduction in spore germination
# [39] = test system: Cercospora beticola; test: Antifungal activity against Cercospora beticola isolate 11-1026-2 expressing cytb with alanine at codon 143 assessed as reduction in spore germination
# [40] = test system: Cercospora beticola; test: Antifungal activity against Cercospora beticola isolate 11-1042-1 expressing cytb with alanine at codon 143 assessed as reduction in spore germination
# [41] = test system: Cercospora beticola; test: Antifungal activity against Cercospora beticola isolate 11-1027-2 expressing cytb with alanine at codon 143 assessed as reduction in spore germination
# [42] = test system: Cercospora beticola; test: Antifungal activity against Cercospora beticola isolate 11-1004-1 expressing cytb with alanine at codon 143 assessed as reduction in spore germination
# [43] = test system: Cercospora beticola; test: Antifungal activity against Cercospora beticola isolate 11-1009-1 expressing cytb with alanine at codon 143 assessed as reduction in spore germination
# [44] = test system: Cercospora beticola; test: Antifungal activity against Cercospora beticola isolate 11-1028-1 expressing cytb with alanine at codon 143 assessed as reduction in spore germination
# [45] = test system: Cercospora beticola; test: Antifungal activity against Cercospora beticola isolate 11-1006-2 expressing cytb with alanine at codon 143 assessed as reduction in spore germination
# [46] = test system: Cercospora beticola; test: Antifungal activity against Cercospora beticola isolate 98-10-M expressing cytb with glycine at codon 143 assessed as reduction in spore germination
# [47] = test system: Cercospora beticola; test: Antifungal activity against Cercospora beticola isolate 11-1040-1 expressing cytb with alanine at codon 143 assessed as reduction in spore germination
# [48] = test system: Cercospora beticola; test: Antifungal activity against Cercospora beticola isolate 11-1022-2 expressing cytb with alanine at codon 143 assessed as reduction in spore germination
# [49] = test system: Cercospora beticola; test: Antifungal activity against Cercospora beticola isolate 99-521-29-M expressing cytb with glycine at codon 143 assessed as reduction in spore germination
compound,measurement,setting,value
COC(=O)N(OC)c1ccccc1COc1ccn(-c2ccc(Cl)cc2)n1 [PYRACLOSTROBIN],EC50,[1],0.001 µg/mL
same,EC50,[2],4.53 µg/mL
same,EC50,[3],29.7 µg/mL
same,EC50,[4],5.55 µg/mL
same,EC50,[5],2.1 µg/mL
same,EC50,[6],4.55 µg/mL
same,EC50,[7],39.9 µg/mL
same,EC50,[8],31 µg/mL
same,EC50,[9],72.2 µg/mL
same,EC50,[10],7.15 µg/mL
same,EC50,[11],29.7 µg/mL
same,EC50,[12],3.24 µg/mL
same,EC50,[13],4.82 µg/mL
same,EC50,[14],0.006 µg/mL
same,EC50,[15],0.915 µg/mL
same,EC50,[16],4.78 µg/mL
same,EC50,[17],26.2 µg/mL
same,EC50,[18],0.001 µg/mL
same,EC50,[19],5.23 µg/mL
same,EC50,[20],25.9 µg/mL
same,EC50,[21],22.3 µg/mL
same,EC50,[22],16.1 µg/mL
same,EC50,[23],0.001 µg/mL
same,EC50,[24],16.2 µg/mL
same,EC50,[25],41.7 µg/mL
same,EC50,[26],0.001 µg/mL
same,EC50,[27],40.9 µg/mL
same,EC50,[28],5.03 µg/mL
same,EC50,[29],14.3 µg/mL
same,EC50,[30],46 µg/mL
same,EC50,[31],5.92 µg/mL
same,EC50,[32],32.6 µg/mL
same,EC50,[33],0.001 µg/mL
same,EC50,[34],16.9 µg/mL
same,EC50,[35],7.86 µg/mL
same,EC50,[36],51.7 µg/mL
same,EC50,[37],0.003 µg/mL
same,EC50,[38],20.4 µg/mL
same,EC50,[39],7.56 µg/mL
same,EC50,[40],31.4 µg/mL
same,EC50,[41],4.12 µg/mL
same,EC50,[42],5.34 µg/mL
same,EC50,[43],47.4 µg/mL
same,EC50,[44],8.79 µg/mL
same,EC50,[45],9.54 µg/mL
same,EC50,[46],0.001 µg/mL
same,EC50,[47],12 µg/mL
same,EC50,[48],6.37 µg/mL
same,EC50,[49],0.001 µg/mL
CO/N=C(\C(=O)OC)c1ccccc1CO/N=C(\C)c1cccc(C(F)(F)F)c1,EC50,[1],0.004 µg/mL
same,EC50,[2],4.96 µg/mL
same,EC50,[3],6.86 µg/mL
same,EC50,[4],8.15 µg/mL
same,EC50,[5],7.79 µg/mL
same,EC50,[6],6.09 µg/mL
same,EC50,[7],19.9 µg/mL
same,EC50,[8],6.36 µg/mL
same,EC50,[9],7.3 µg/mL
same,EC50,[10],25.9 µg/mL
same,EC50,[11],3.62 µg/mL
same,EC50,[12],35.5 µg/mL
same,EC50,[13],7.49 µg/mL
same,EC50,[14],0.006 µg/mL
same,EC50,[15],1 µg/mL
same,EC50,[16],7.65 µg/mL
same,EC50,[17],8.37 µg/mL
same,EC50,[18],0.004 µg/mL
same,EC50,[19],8.56 µg/mL
same,EC50,[20],29.7 µg/mL
same,EC50,[21],13.7 µg/mL
same,EC50,[22],6.84 µg/mL
same,EC50,[23],0.004 µg/mL
same,EC50,[24],7.02 µg/mL
same,EC50,[25],5.48 µg/mL
same,EC50,[26],0.005 µg/mL
same,EC50,[27],6.78 µg/mL
same,EC50,[28],4.54 µg/mL
same,EC50,[29],13.8 µg/mL
same,EC50,[30],9.54 µg/mL
same,EC50,[31],4.24 µg/mL
same,EC50,[32],2.36 µg/mL
same,EC50,[33],0.006 µg/mL
same,EC50,[34],3.27 µg/mL
same,EC50,[35],3.25 µg/mL
same,EC50,[36],5.89 µg/mL
same,EC50,[37],0.005 µg/mL
same,EC50,[38],6.79 µg/mL
same,EC50,[39],8.55 µg/mL
same,EC50,[40],8.83 µg/mL
same,EC50,[41],6.06 µg/mL
same,EC50,[42],6.66 µg/mL
same,EC50,[43],39.4 µg/mL
same,EC50,[44],7.62 µg/mL
same,EC50,[45],8.46 µg/mL
same,EC50,[46],0.001 µg/mL
same,EC50,[47],7.64 µg/mL
same,EC50,[48],4.98 µg/mL
same,EC50,[49],0.005 µg/mL
